Data: US4579866A, “Phenylacetamides as anti-allergy, anti-asthma and anti-inflammatory agents” (USV Pharmaceutical Corp., priority 1984, dated 1986)

The compounds below were run against T1, RAT 5-LIPOXYGENASE (Rattus norvegicus, UniProt P12527) (assay: Biosynthesis of 5-HETE by rat polymorphonuclear leukocytes in vitro (inhibition of rat 5-lipoxygenase)). Conditions: rat neutrophils, A23187, 3 minutes at 30° C.; concentration at which 50% inhibition is observed; read-out: INHIBITION OF RAT 5-LIPOXYGENASE, I50.
T1 construct: A suspension of rat neutrophils in buffer; endogenous in cells; host or cells: rat neutrophils (polymorphonuclear leukocytes)
T1 sequence (P12527 1-673): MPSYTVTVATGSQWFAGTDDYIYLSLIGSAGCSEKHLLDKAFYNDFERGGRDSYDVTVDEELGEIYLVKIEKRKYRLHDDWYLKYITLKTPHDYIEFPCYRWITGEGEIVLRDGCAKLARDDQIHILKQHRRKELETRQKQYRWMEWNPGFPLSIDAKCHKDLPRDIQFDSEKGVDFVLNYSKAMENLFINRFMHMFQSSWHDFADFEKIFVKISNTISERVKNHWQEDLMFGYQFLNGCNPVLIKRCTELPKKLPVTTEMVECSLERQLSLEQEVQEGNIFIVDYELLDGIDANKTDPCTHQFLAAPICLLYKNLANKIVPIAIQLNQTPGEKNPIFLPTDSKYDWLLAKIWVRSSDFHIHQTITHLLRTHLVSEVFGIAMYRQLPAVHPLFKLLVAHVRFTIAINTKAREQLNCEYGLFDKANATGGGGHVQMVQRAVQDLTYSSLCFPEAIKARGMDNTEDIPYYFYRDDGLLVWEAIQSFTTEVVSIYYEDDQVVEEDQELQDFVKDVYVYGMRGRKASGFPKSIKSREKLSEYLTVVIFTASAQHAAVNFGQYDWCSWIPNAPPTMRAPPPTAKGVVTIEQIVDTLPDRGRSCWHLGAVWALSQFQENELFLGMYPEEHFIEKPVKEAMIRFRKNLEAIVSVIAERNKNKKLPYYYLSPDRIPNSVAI
Assay type: cell-based
Protocol: Protocol for the Biosynthesis of 5-HETE by Rat Polymorphonuclear Leukocytes In Vitro
A suspension of rat neutrophils in buffer is incubated for 3 minutes at 30° C. with [^14 C]-arachidonic acid (AA) and calcium ionophore A23187. Citric Acid (2M) NDGA (10 mM) is used to quench the reaction. Following the addition of a trace amount of (^3 H)-5-HETE together with an excess of unlabeled 5-HETE to each tube, the mixture is extracted with chloroform/methanol. The organic layer is washed with dilute acid and an aliquot is transferred to glass tubes and dried. The residue is dissolved in a small volume of chloroform and an aliquot is spotted on silica gel TLC sheets, which are developed with an ethyl acetate/isoctane/water/acetic acid solvent system. The 5-HETE spots are visualized under UV light, cut out and placed in scintillation vials for counting. After adjusting for the extraction efficiency, the amount (pmole) of [^14 C]-5-HETE in each of the tubes is quantitated. The net pmoles of 5-HETE are obtained by subtracting the pmoles of 5-HETE in the tubes containing buffer alone (blank) from the pmoles of 5-HETE in the tubes containing […]. The ability of the test compounds to modulate the activity of this enzyme is determined by a decrease or increase in the net amount of 5-HETE produced.
If the percentage of inhibition exceeds 50%, the compounds are then evaluated in terms of response over a range of concentrations. From a plot of response against concentration, the I50 value is obtained. The I50 value is the concentration at which 50% inhibition is observed.

SMILES | IC50 [µM]
CN(CC(O)c1ccccc1)C(=O)Cc1ccc(OCCc2ccccc2)c(Cl)c1 (stereo not shown) [N--[3-Chloro-4-phenylethyloxyphenylacetyl]-N--methyl-2-hydroxy-2-phenyl-ethyl-amine] | 3
CCCOc1ccc(CC(=O)N[C@H](Cc2ccccc2)C(=O)OC)cc1Cl [3-Chloro-4-n-propyloxyphenylacetyl-D-phenylalanine methyl ester] | 0.8
C=CCOc1ccc(CC(=O)N(C)CCc2ccccc2)cc1Cl [N--[4-Alloyoxy-3-chlorophenylacetyl]-N--methyl-2-phenylethylamine] | 2.4
C#CCOc1ccc(CC(=O)N[C@H](Cc2ccccc2)C(=O)OC)cc1Cl [3-Chloro-4-propargyloxyphenylacetyl-D-phenylalanine methyl ester] | 0.5
